This assay concerns the target T1, human HmGluR3 (Homo sapiens, UniProt Q14832).
T1 construct: expressed in transfected cells; host or cells: RGT (RGT-18) cells, i.e. AV12 cells stably expressing the rat glutamate transporter GLAST
Put plainly: Inhibition of forskolin-stimulated cAMP synthesis (adenylate cyclase activity) in RGT cells stably transfected with pGTh-HmGluR3. The format is cell-based. Here is the method:
In an especially preferred embodiment of this invention an assay measuring the inhibition of forskolin-stimulated cAMP synthesis was performed. The inhibition of cAMP synthesis is known to positively correlated with the addition of glutamate to cells containing certain types of metabotropic receptors.
Adenylate cyclase activity was determined in initial experiments in transfected mammalian cells, using standard techniques. See. e.g., N. Adham, et al., supra,; R. L. Weinshank, et al., Proceedings of the National Academy of Sciences (USA), 89:3630-3634 (1992), and the references cited therein.
As noted above, mammalian cells (the cell line RGT) were stably transfected with the plasmid pGTh-HmGluR3, containing human HmGluR3 cDNA inserted in the plasmid vector pGTh, as depicted in FIG. 2. The cells were maintained in a medium consisting of Dulbecco's Modified Eagle's Medium (DMEM) containing 5% dialyzed fetal calf serum, 10 mM HEPES buffer (pH 7.3), 1 mM sodium pyruvate, 1 mM glutamine, and 200 μg/ml hygromycin.
For the assay the cells were disassociated from stock culture flasks with trypsin, and planted in 24-well plastic culture dishes (15 mm wells) at a density of 500-700,000 cells per well using the same culture medium. After twenty four hours incubation in a humidified carbon dioxide incubator, the cell monolayers are washed with buffer (Dulbecco's phosphate-buffered saline containing 0.5 mM isobutylmethylxanthine and 3 mM glucose) and then incubated in the same buffer at 37° C. for 30 minutes. The monolayers are then washed four additional times with buffer.
Drugs and forskolin, or forskolin alone, dissolved in buffer, was added after the final wash. After incubating for 20 minutes at 37° C., 0.5 ml of 8 mM EDTA was added to each well. The plates were then placed in a boiling water bath for about four minutes. The supernatant fluids are then recovered from the wells and lyophilized. Cyclic adenosinemonophosphate (cAMP) determinations were carried out on the lyophilized samples using commercially available radioimmunoassay kits, following the manufacturer's instructions. The cAMP level in wells containing drug was compared to the forskolin controls.

[1] abbreviates: RGT cells expressing HmGluR3, cAMP by radioimmunoassay versus forskolin controls, 20 minutes at 37° C., read-out: EC50 (potencies of selected agonists for HmGluR3 expressed in RGT cells).

Consider four molecules from patent US6387655B1, “Excitatory amino acid receptor protein and related nucleic acid compounds” (Eli Lilly and Company, priority 1995, dated 2002).

Read-outs that look alike come from different tables or passages of the source.

T1 sequence (Q14832 23-879): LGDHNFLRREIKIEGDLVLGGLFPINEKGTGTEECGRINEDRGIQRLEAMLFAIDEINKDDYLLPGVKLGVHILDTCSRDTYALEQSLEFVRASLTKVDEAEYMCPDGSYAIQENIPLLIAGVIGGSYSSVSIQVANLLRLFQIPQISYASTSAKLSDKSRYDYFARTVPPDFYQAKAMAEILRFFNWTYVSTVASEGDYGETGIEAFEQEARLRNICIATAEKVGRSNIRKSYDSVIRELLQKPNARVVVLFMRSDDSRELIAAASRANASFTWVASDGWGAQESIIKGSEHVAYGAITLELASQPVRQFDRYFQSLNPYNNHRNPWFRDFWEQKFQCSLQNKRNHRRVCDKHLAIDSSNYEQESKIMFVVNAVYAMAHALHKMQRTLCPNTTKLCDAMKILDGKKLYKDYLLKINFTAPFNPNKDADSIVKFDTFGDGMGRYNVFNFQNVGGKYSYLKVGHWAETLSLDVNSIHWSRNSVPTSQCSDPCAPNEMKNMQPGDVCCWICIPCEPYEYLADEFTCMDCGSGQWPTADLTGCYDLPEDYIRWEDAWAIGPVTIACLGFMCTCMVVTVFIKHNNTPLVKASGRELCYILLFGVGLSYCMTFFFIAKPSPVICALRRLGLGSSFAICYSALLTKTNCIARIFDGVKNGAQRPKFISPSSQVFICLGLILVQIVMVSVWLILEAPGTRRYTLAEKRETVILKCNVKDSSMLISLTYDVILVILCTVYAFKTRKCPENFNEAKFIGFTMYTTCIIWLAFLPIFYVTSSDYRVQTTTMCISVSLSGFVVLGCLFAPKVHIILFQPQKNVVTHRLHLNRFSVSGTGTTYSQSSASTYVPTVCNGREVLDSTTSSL

Turning to `NC1(C(=O)O)CCC(C(=O)O)C1` (stereo not drawn) [1S,3R-1-aminocyclopentant-1,3-dicarboxylic acid], the EC50 (usually the midpoint of the concentration-response curve) amounted to 2230 nM.

Regarding `N[C@H](C(=O)O)C1CC1C(=O)O` (stereo partly drawn) [L-2-(carboxycyclopropyl)glycine-I], the EC50 under setting [1] was found to be 12 nM.

As to `N[C@@H](CCC(=O)O)C(=O)O` [L-Glutamate, 1-aminopropane-1,3-dicarboxylic acid], the concentration for a half-maximal effect (EC50) was found to be 5380 nM.

With `NC1(C(=O)O)CNC(C(=O)O)C1` (stereo not drawn) [2R,4R-4-aminopyrrolidine-2,4-dicarboxylate], the EC50 under setting [1] was determined as 550 nM.
